Measured values as given in paper PMC5767327, “Tonically Active α2 Subunit-Containing Glycine Receptors Regulate the Excitability of Striatal Medium Spiny Neurons” (Frontiers in Molecular Neuroscience, 2018).

Molecular target: T1, GlyR α2 (native α2 subunit-containing glycine receptors of striatal medium spiny neurons) (Mus musculus, UniProt Q7TNC8)
T1 construct: gene Glra2; native full-length receptor in adult dorsal striatal slices; α2 homomer or α2β heteromer (Glrb) not resolved by authors; no glycine current in Glra2 knockout MSNs
T1 sequence (Q7TNC8 28-452): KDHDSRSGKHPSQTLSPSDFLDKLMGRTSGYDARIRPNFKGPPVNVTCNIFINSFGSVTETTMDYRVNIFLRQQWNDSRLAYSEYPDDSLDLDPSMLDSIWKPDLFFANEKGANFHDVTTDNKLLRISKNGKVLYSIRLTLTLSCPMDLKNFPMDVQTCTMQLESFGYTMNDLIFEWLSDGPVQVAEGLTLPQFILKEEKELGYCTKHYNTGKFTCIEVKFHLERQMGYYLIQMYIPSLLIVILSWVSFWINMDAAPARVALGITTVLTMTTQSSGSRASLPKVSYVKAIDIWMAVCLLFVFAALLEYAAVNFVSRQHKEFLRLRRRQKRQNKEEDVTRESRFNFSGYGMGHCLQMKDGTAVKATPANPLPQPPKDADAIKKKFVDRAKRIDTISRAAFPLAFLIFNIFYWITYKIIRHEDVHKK
Test: whole-cell patch clamp, evoked chloride current, fast perfusion, Hill fit
Type: cell-based
Settings: read-out: STP MSNs (n = 6); agonist; STP MSNs (Drd2-EGFP) in acute striatal slices, native receptor; -80 mV, 32°C; with gabazine, CNQX, DHβE, L-689,560, TTX; authors call it a higher boundary (diffusion in slice)
Source text: whole-cell patch clamp, evoked chloride current, fast perfusion, Hill fit on GlyR α2 (native α2 subunit-containing glycine receptors of striatal medium spiny neurons)

NCC(=O)O [glycine]
EC50: 317 ± 25.4 µM
